According to US20200054581A1, “APPLICATION OF TRPM7 INHIBITORS TO TREAT SLEEP APNEA AND HYPERTENSION IN OBESITY” (THE JOHNS HOPKINS UNIVERSITY, priority 2017, published 2020):
Entries after “also recorded” stand apart in the source; their conditions may differ. Like-named read-outs stand apart in the source and are kept apart here.

Key:
[1] = tested on: isolated CB-CSN preparations; assay: hypoxia-induced CSN activity in isolated superfused CB-CSN preparation; design: species or system C57B1/6J (WT) mice; conditions: for leptin-enhanced hypoxia-induced CSN activity: effect of nonspecific TRP channel antagonist; for hypoxia-induced CSN activity: effect of leptin
From the text: SKF and 2-APB data were pooled, *p<0.05.
Leptin and carotid body function CBs are major peripheral O2 sensors, which initiate chemosensory inputs in the CSN to the respiratory centers via nucleus solitarius to evoke acute hyperventilation, and the rostral ventrolateral medulla presympathetic neurons to stimulate SNS activity. CB plays critical roles in the development of hypertension during chronic intermittent hypoxia (CIH); and the sympatho-excitation and destabilization of breathing during heart failure. However, the connection between CB and the obesity-associated hypertension and respiratory instability has not been clearly established. […] The effect of leptin on isolated CB-CSN preparations from C57B1/6J (WT) mice was studied.

[2] = target: TRPM7 (Homo sapiens, UniProt Q96QT4); conditions: cited from earlier work
[3] = tested on: rat glomus cells; conditions: cited from earlier work
[4] = tested on: TRPM7; assay: Trpm7 mRNA level by qPCR in PC12^LEPRb cells; type: cell-based; conditions: 48 hr exposure
Description: (§1) FIG. 8A-8C illustrates exposure of leptin to Leprb-expressing PC12^LEPRb cells increased Trpm7 promoter activity and gene transcription. (A) PC12^LEPRb cells transfected with either pEZX-Luc-vector (empty, no insert) or pEZX-Luc-Trpm7 (promoter insert) were exposed to 1 ng/ml leptin for 48 hr prior to measurement of luciferase activity. B and C) Gene expression and promoter methylation of Trpm7 in cells exposed to leptin or 5-aza-dC for 48 hr. Trpm7 mRNA level was quantitated by qPCR. Methylation status of CpG sites in Trpm7 promoter were determined by bisulfite sequencing. A total of 40 CpG sites per clone and 6 individual clones for each treatment group were sequenced. Each row of circles represented an individual clone. Putative TF binding sites such as STAT3 and NFkB were shown in scale in Trpm7 promoter. TSS: transcription start site. Boxed regions highlight the CpG sites showing differential methylation in cells exposed to leptin or 5-aza-dC. (p<0.05). Values were mean±SD.
(§2) Leptin can regulate gene transcription by binding to ObRb to activate Janus kinase 2/signal transducers and activator of transcription 3 (JAK2/STAT3) as well as ERK1/2 and PI3K pathways (FIG. 7), which are known to regulate a wide variety of genes. To examine the possible regulation of Trpm7 transcription by leptin, we searched the Trpm7 promoter sequence for potential binding sites for transcription factors (TFs). […]

[5] = target: T1, TRPM7 (Rattus norvegicus, UniProt Q925B3); assay: non-selective cation (TRPM7) current, amphotericin-B perforated-patch recording in PC12^LEPRb cells; type: cell-based; conditions: for leptin-enhanced non-selective cation current / naltriben-induced increase of the current: effect of TRPM7 antagonist
T1 construct: PC12 cells are oxygen-sensitive, express high level of TRPM7; endogenous in cells; host or cells: PC12^LEPRb cells (PC12 transfected with leptin receptor LEPRb; TRPM7 itself not transfected)
From the text: FIG. 5A-5C illustrates leptin enhances TRPM7 current in leptin receptor expressing PC12 cells.
Leptin can regulate TRPM7 channel activity. Leptin exerts its action by binding to the long form of leptin receptors (LEPRb, ObRb), which is the only functional isoform of leptin receptor. The possible effect of leptin on TRPM7 channel activity was investigated, by using LEPRb expressing adrenal pheochromocytoma PC12 (PC12^LEPRb) cells as the cell model, because PC12 cells are oxygen-sensitive, express high level of TRPM7 and have been used widely in the studies of chemoreception. Non-selective cation current was recorded using amphotericin-B perforated-patch technique in the absence of extracellular and intracellular K^+ (replaced by Cs^+) and Mg^2+, after VDCC was blocked by nifedipine and Cl^− currents were inhibited by DIDS and niflumic acid. Voltage-ramp of −100 to +100 mV elicited an outward rectifying current that resembled TRPM7 current reported in other cell types. […] The leptin-induced current was not observed in PC12 cells transfected with a control plasmid (data not shown). The present invention provides the first evidence showing activation of leptin receptor is capable of enhancing TRPM7 activity, and it supports our hypothesis that leptin may enhance CB activity through regulation of TRPM7 activity.
Obesity is a leading cause of high cardiovascular morbidity and mortality. It is characterized by an increased leptin level, which has been implicated in increased sympathetic activity and the pathogenesis of hypertension. However, the mechanism by which leptin enhances sympathetic activity is unclear. Leptin receptors (LEPRs) are expressed in the carotid bodies, the most important arterial chemoreceptors for the cardiovascular-respiratory chemoreflex. Since leptin is known to regulate many different ion channels, we hypothesize that leptin may exert its effects through modulation of TRPM7 channel activity. To test this hypothesis, the inventors used LEPR (LEPRb) expressing pheochromocytoma (PC12^LEPRb) cells, which expresses high levels of TRPM7 channels, as the cell model. Non-selective cation channels were recorded under amphotericin-B perforated-patch techniques with K^+ replaced by Cs^+ in the presence of voltage-gated Ca^2+ channel and Cl^− channel blockers. Voltage-ramp from −100 to 100 mV activated an outward-rectifying current. Removal of extracellular divalent ions enhanced the inward current, consistent with the inward divalent ion selectivity of TRPM7.

[6] = tested on: C57BL/6J mice; assay: telemetric blood pressure in mice, leptin-induced hypertension; type: in vivo, mouse
Description: Leptin signals in the CB to increase blood pressure. Male C57BL/6J mice, n=6 housed in a 12 hr light/dark cycle underwent telemetry implantation (Data Sciences) in the left femoral artery as we have described. […] After 4 day recovery mice were treated with vehicle (saline) regaining weight. On Day 17th of the protocol, carotid sinus nerve dissection (CSND, CB denervation) was performed bilaterally. After 1 week recovery, leptin and vehicle infusions were repeated. […] In contrast, CB denervation greatly modified cardiovascular effects of leptin. Indeed, in mice with intact carotid bodies leptin increased mean arterial pressure by 13 mm Hg during the day and by 16 mm Hg at night (FIG. 16A). […] Thus, leptin increases blood pressure acting in the CB.
FTY720 abolishes leptin-induced hypertension. There are multiple TRPM7 inhibitors available. We used a potent TRPM7 inhibitor FTY720 for several reasons. FTY720 is a novel immunomodulator and a structural homolog of shingosine-1-phosphate (S1P) blocking S1P effects in many diseases, including atherosclerosis, cancer, asthma, autoimmune diseases and acute lung injury. First, FTY270 has already been approved by FDA for multiple sclerosis (fingolimod). […] The experiment was performed in lean (24-26 g) C57BL/6J mice (n=5). Telemetry for continuous blood pressure recording was inserted. After 5 day recovery, mice were treated with leptin for 3 days as above. The pump was removed. After 7 day recovery, leptin was reinfused as above, but FTY720 was infused SC simultaneously at 0.1 mg/day (approximately 3 mg/kg/day).
Obesity leads to cardiovascular morbidity and mortality acting via multiple mechanisms including hypertension and obstructive sleep apnea. High levels of leptin have been associated with both conditions. The carotid bodies (CB) express leptin receptor (LepR), but the mechanism of leptin in CB is unknown. […] (CSND). In mice with intact CB, leptin increased mean arterial pressure by 13 mm Hg during the day and by 16 mm Hg at night (p=0.003 for the effect of leptin). […] Leptin receptor expression in carotid bodies of leptin receptor deficient db/db mice led to the same effect (n=6, p<0.05). […] Finally, the inventors tested the effect of a Trpm7 inhibitor on leptin-induced hypertension. The inventors performed blood pressure monitoring in male C57BL/6J mice (n=5˜9) at baseline, during leptin infusion with or without Trpm7 inhibitor, FTY720 (3 mg/kg/day, sc, n=5) for 24 hrs. […] The inventors conclude that leptin increases blood pressure acting in the CB via the Trpm7 channel.

[7] = mice; cited from earlier work
[8] = humans; cited from earlier work
[9] = tested on: C57BL/6J mice; assay: minute ventilation and hypoxic ventilatory response (HVR) in awake lean mice; type: in vivo, mouse
Description: (§3) Leptin increases the HVR in lean mice. Minute ventilation (VE) was measured at normoxic conditions and during 3-5 min exposure to 10% O2 in awake lean male C57BL/6J mice, n=4, at baseline and during leptin administration (30 μg/day for 3 days via a subcutaneous osmotic pump). Serum leptin levels increased from 0.8±0.2 ng/ml to 33.2±1.9 ng/ml, which was similar to previously reported in DIO mice and obese humans, and then returned to the baseline. Mice decreased food intake and lost weight. Leptin increased VE at baseline as a result of an increase in the metabolic rate (FIG. 10). Leptin increased the HVR by greater than 60%.
Trpm7 inhibition prevents effects of leptin on the HVR. […] Male C57BL/6J mice (n=2) were treated with leptin for 3 days as described above. After 5 day recovery, leptin and a TRPM7 blocker NS8593 (10 mg/kg/day) were administered subcutaneously via an osmotic pump for 3 days. Mice reduced food intake and lost weight with leptin, regardless of the TRPM7 inhibitor.

[10] = tested on: Trpm7 promoter; assay: Trpm7 promoter luciferase reporter in PC12^LEPRb cells; type: cell-based; conditions: leptin 1 ng/ml, 48 hr
Description: as §1, §2

[11] = tested on: Trpm7 promoter; assay: Trpm7 promoter methylation by bisulfite sequencing in PC12^LEPRb cells; type: cell-based; conditions: leptin exposure
Description: as §1, §2

[12] = serum leptin levels during leptin administration; type: in vivo, mouse; conditions: leptin 30 μg/day for 3 days, subcutaneous osmotic pump
Description: as §3

[13] = NS8593 10 mg/kg/day subcutaneously via osmotic pump for 3 days with leptin, 10 mg/kg/day
[14] = leptin infusion for 3 days, intact carotid bodies

Chain of TRPM7 (Homo sapiens, UniProt Q96QT4) (Q96QT4 whole entry, species assumed): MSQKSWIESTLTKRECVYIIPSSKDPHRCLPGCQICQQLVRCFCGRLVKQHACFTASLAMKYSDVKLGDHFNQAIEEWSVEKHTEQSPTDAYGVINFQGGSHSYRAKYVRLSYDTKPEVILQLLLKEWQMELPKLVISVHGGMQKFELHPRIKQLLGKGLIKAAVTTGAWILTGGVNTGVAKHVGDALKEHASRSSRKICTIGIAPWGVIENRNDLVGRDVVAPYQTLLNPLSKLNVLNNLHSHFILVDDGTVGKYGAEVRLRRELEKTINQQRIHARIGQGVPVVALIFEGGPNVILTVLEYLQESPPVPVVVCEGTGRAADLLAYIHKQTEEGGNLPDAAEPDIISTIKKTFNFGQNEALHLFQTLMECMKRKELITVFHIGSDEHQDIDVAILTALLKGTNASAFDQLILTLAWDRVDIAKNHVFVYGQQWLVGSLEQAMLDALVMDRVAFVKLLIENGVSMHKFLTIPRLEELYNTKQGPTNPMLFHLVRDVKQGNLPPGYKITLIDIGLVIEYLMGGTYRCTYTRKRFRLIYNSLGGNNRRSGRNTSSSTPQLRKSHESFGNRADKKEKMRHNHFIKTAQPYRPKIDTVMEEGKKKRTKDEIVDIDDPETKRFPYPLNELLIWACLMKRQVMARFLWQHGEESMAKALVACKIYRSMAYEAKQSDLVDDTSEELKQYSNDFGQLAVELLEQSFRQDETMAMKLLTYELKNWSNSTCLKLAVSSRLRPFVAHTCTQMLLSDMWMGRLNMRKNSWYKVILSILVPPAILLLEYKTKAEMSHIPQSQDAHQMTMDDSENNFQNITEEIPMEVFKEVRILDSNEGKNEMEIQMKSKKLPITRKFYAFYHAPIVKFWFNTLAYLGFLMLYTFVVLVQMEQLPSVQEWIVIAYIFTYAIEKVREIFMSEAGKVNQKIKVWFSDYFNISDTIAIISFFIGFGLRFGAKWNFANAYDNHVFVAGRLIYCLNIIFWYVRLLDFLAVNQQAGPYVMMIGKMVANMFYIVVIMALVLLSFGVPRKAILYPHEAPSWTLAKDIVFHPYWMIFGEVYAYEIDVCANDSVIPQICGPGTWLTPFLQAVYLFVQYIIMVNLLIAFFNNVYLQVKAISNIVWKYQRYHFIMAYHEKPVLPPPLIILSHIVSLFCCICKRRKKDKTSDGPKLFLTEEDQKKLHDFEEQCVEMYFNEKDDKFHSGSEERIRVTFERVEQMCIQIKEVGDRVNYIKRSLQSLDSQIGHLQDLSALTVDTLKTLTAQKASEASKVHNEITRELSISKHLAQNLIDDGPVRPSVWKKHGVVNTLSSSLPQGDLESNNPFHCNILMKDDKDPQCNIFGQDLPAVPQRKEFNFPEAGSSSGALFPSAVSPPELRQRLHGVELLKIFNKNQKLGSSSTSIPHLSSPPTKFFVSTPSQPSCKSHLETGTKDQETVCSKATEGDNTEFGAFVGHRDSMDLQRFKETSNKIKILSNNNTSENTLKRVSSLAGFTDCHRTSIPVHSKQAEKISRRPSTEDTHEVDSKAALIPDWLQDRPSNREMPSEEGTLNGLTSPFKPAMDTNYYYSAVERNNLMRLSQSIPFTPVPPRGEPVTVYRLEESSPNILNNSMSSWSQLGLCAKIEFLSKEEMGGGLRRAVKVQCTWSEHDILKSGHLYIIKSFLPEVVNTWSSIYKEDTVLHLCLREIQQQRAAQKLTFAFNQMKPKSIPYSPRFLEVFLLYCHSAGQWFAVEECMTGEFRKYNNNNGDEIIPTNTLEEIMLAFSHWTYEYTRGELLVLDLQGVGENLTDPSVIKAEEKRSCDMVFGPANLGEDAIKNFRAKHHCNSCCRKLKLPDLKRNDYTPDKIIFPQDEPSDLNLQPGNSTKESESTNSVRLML
T1 sequence (Q925B3 whole entry): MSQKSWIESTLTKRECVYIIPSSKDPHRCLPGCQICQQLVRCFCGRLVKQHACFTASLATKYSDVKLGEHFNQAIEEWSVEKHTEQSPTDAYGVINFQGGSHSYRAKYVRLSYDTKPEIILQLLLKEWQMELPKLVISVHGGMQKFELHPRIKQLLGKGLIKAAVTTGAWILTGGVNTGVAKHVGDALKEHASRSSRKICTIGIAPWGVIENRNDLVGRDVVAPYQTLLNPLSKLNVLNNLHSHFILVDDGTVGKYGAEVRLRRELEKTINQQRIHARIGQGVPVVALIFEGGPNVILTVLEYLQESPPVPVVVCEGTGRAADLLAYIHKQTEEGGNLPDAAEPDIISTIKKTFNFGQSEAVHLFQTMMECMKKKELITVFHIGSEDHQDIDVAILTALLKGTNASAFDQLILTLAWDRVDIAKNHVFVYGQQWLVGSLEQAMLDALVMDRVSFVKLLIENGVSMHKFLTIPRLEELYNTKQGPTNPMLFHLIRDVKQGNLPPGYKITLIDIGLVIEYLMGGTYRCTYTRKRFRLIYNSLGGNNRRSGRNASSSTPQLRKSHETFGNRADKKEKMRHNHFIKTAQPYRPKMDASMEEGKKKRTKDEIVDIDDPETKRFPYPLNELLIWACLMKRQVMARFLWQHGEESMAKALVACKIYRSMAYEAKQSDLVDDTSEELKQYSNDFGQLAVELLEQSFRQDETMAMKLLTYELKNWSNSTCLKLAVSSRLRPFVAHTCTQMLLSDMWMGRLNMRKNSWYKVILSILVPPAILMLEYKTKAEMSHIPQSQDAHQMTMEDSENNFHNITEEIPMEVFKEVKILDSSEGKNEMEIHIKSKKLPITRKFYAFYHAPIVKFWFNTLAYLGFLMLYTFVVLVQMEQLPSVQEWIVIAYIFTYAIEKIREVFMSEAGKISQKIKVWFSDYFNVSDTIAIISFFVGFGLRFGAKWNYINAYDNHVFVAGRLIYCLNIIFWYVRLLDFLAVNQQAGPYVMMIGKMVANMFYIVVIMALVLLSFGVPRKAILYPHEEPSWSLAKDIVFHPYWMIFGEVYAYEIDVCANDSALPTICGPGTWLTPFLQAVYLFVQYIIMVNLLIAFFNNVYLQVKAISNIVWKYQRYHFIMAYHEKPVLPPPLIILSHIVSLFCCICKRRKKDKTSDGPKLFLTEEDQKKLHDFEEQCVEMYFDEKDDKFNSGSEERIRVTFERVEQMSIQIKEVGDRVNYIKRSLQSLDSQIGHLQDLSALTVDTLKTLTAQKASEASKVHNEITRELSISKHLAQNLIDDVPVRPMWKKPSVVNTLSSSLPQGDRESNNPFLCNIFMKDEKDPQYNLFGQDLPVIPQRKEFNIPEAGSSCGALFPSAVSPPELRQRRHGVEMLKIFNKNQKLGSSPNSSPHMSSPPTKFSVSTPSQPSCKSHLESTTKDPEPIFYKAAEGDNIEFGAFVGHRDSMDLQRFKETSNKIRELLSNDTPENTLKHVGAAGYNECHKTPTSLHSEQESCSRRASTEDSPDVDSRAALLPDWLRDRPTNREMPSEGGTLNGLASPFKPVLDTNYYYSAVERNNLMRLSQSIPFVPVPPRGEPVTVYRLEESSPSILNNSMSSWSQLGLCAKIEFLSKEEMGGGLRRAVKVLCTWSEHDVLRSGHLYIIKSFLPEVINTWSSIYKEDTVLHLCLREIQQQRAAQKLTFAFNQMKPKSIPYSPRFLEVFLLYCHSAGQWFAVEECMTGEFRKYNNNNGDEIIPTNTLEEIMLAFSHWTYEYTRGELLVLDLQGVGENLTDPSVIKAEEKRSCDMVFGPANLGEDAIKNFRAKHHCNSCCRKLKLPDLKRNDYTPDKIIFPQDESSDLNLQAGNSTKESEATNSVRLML

In the case of `NCCOB(c1ccccc1)c1ccccc1` [2-APB, 2-aminoethoxydiphenylborane], the “leptin-enhanced hypoxia-induced CSN activity” value [1] is given as “blocked”, the TRPM7 channel activity [2] is given as “inhibited” and the “elevation of [Ca2+]i induced by hypoxia, NaCN and FCCP” value [3] is given as “inhibited”.
With `Nc1ncn([C@H]2C[C@H](O)[C@@H](CO)O2)c(=O)n1` [5-aza-dC] the “Trpm7 mRNA level” value [4] was “increased”.
In the case of `CCCCCCCCc1ccc(CCC(N)(CO)CO)cc1` [FTY720, 2-amino-2-[2-(4-octylphenyl)ethyl]propane-1,3-diol], the “leptin-enhanced non-selective cation current” value [5] is reported as “significantly inhibited; also recorded: completely blocked”, the “naltriben-induced increase of the current” value [5] is reported as “abolished” and the “leptin-enhanced non-selective cation current” value ([5]; listed as FTY120) is reported as “almost completely abolished”. For the same compound, the leptin-induced hypertension ([6]; FTY720 SC 0.1 mg/day (approximately 3 mg/kg/day) with leptin) was “completely abolished; also recorded: prevented”, the half-life [7] was 19 to 28 h and the half-life [8] was 170 h. For the same compound, the TRPM7 channel activity [2] was “inhibited”.
In the case of `Cl.c1ccc2c(c1)CCC[C@H]2Nc1nc2ccccc2[nH]1` [NS8593, N-[(1R)-1,2,3,4-Tetrahydro-1-naphthalenyl]-1H-Benzimidazol-2-aminehydrochloride], the “leptin-enhanced non-selective cation current” value [5] is reported as “completely blocked; also recorded: almost completely abolished”, the “naltriben-induced increase of the current” value [5] is reported as “abolished” and the basal ventilation ([9]; NS8593 10 mg/kg/day subcutaneously via osmotic pump for 3 days with leptin) is reported as “without any effect”. The “leptin-induced hypoxic hyperventilation (VE during acute hypoxia)” value [9, 13] was “abolished; also recorded: prevented”, the “leptin-induced increase in the HVR” value [9, 13] was “abolished; also recorded: abolishing” and the TRPM7 channel activity [2] was “inhibited”.
With `COc1ccc(CCCOC(Cn2ccnc2)c2ccc(OC)cc2)cc1` (centres unmarked) [SKF96365] the “leptin-enhanced hypoxia-induced CSN activity” value [1] was “dampened; also recorded: blocked”.
For `Cc1ccc(C(C)C)cc1O` [carvacrol], the TRPM7 channel activity [2] is listed as “inhibited”.
In the case of `Oc1ccc2c3c1O[C@H]1c4oc5ccccc5c4C[C@@]4(O)[C@@H](C2)N(CC2CC2)CC[C@]314` [naltriben], the “outward rectifying non-selective cation (TRPM7) current” value ([5]; effect of TRPM7 agonist (50 μM elsewhere in the source), voltage-ramp −100 to +100 mV) is listed as “significant augmentation; also recorded: significant increase” and the TRPM7 channel activity [2] is listed as “activated”.
For `CCCCCCCCCCCCC/C=C/[C@@H](O)[C@@H](N)CO` [sphingosine], the TRPM7 channel activity [2] is listed as “inhibited”.
For leptin: an adipocyte-produced hormone, the “hypoxia-induced CSN activity” value [1] was “significantly augmented”, the “hypoxia-induced CSN activity” value ([1]; listed as Leptin) was “augments” and the “outward rectifying non-selective cation (TRPM7) current” value ([5]; effect of leptin (10-100 ng/ml elsewhere in the source)) was “enhances; also recorded: concentration-dependent increase”. For the same compound, the “Trpm7 promoter luciferase activity” value [10] was “significantly increased”, the “Trpm7 mRNA level” value [4] was “increased; also recorded: significant increase” and the “methylation status of Trpm7 promoter” value [11] was “CpG site-specific demethylation”. The body weight ([9]; leptin 30 μg/day for 3 days) was “lost weight”, the food intake ([9]; leptin 30 μg/day for 3 days) was “decreased” and the “increase of the HVR” value ([9]; leptin 30 μg/day for 3 days, subcutaneous osmotic pump, 10% O2) was “greater than 60%”. The “hypoxic ventilatory response (HVR), in words” value ([9]; leptin infusion) was “increased”, the “minute ventilation (VE) at baseline” value ([9]; leptin infusion, normoxic) was “increased” and the serum leptin levels [12] was 33.2 ± 1.9 ng/mL. For the same compound, the heart rate ([6]; leptin) was “increases”, the “mean arterial pressure, in words” value ([6]; leptin) was “increases” and the “increase of mean arterial pressure at night” value [6, 14] was 16 mm Hg. For the same compound, the “increase of mean arterial pressure during the day” value [6, 14] was 13 mm Hg.
